Data taken from ChEMBL document CHEMBL6120947, “Synthesis and Antiosteoporotic Characterization of Diselenyl Maleimides: Discovery of a Potent Agent for the Treatment of Osteoporosis by Targeting RANKL” (J Med Chem, 2024).
Activity calls are given as the source filed them. The calls are words filed in the database; no cut-off is given here.

Columns and labels:
[1] = Toxicity in OVX-induced osteoporosis C57BL/6 mouse model assessed as animal fatality at 10 mg/kg, po administered every other day for 8 weeks; assay type: organism-based; conditions: in vivo, 1344 h
MC3T3-E1 [2] = assay: Effect on osteoblast differentiation in mouse MC3T3-E1 cells assessed as change in Runx2 level at 0.5 to 2 uM incubated for 7 days by Western blot analysis; assay type: functional, cell-based; conditions: dose 0.5-2 µM, time 7.0 day
MC3T3-E1 [3] = assay: Effect on osteoblast differentiation in mouse MC3T3-E1 cells assessed as change in ALP mRNA level at 0.5 to 2 uM incubated for 7 days by qRT-PCR analysis; assay type: functional, cell-based; conditions: dose 0.5-2 µM, time 7.0 day
[4] = Toxicity in OVX-induced osteoporosis C57BL/6 mouse model assessed as pathological change in spleen at 10 mg/kg, po administered every other day for 8 weeks by H and E staining based analysis; assay type: organism-based; conditions: in vivo, 1344 h
BMDM [5] = assay: Effect in JNK level in M-CSF/RANKL-induced osteoclast differentiation in C57BL/6J mouse BMDM cells at 1 uM measured upto 60 mins by Western blot analysis; assay type: functional, cell-based
Mus musculus [6] = assay: Anti-osteoporosis effect in OVX-induced osteoporosis C57BL/6 mouse model assessed as increase in BV/TV value at 10 mg/kg, po administered every other day for 8 weeks by micro-CT analysis; assay type: functional, organism-based
BMDM [7] = assay: Inhibition of osteoclastogenesis in M-CSF/RANKL-induced osteoclast differentiation in C57BL/6J mouse BMDM cells assessed as decrease in NFATc1 level at 1 uM measured for 5 days by Western blot analysis; assay type: functional, cell-based; conditions: time 5.0 day
[8] = Cytotoxicity against C57BL/6J mouse BMDM cells assessed as decrease in cell viability at 20 uM incubated for 48 hrs by MTT assay; assay type: toxicity, cell-based
BMDM [9] = assay: Inhibition of osteoclastogenesis in M-CSF/RANKL-induced osteoclast differentiation in C57BL/6J mouse BMDM cells assessed as reduction in cathepsin K level measured after 5 days by Western blot analysis; assay type: functional, cell-based; conditions: dose <= 2.0 µM, time 5.0 day
[10] = Toxicity in OVX-induced osteoporosis C57BL/6 mouse model assessed as pathological change in lung at 10 mg/kg, po administered every other day for 8 weeks by H and E staining based analysis; assay type: organism-based; conditions: in vivo, 1344 h
[11] = Toxicity in OVX-induced osteoporosis C57BL/6 mouse model assessed as adverse event at 10 mg/kg, po administered every other day for 8 weeks; assay type: organism-based; conditions: in vivo, 1344 h
BMDM [12] = assay: Inhibition of osteoclastogenesis in M-CSF/RANKL-induced osteoclast differentiation in C57BL/6J mouse BMDM cells assessed as reduction in I-kappaB-alpha degradation at 1 uM measured upto 60 mins by Western blot analysis; assay type: functional, cell-based
BMDM [13] = assay: Inhibition of osteoclastogenesis in M-CSF/RANKL-induced osteoclast differentiation in C57BL/6J mouse BMDM cells assessed as reduction in NFATc1 mRNA level measured after 5 days by qRT-PCR analysis; assay type: functional, cell-based; conditions: dose <= 2.0 µM, time 5.0 day
BMDM [14] = assay: Inhibition of osteoclastogenesis in M-CSF/RANKL-induced osteoclast differentiation in C57BL/6J mouse BMDM cells assessed as reduction in bone resorption area measured after 6 days by hydroxyapatite resorption assay; assay type: functional, cell-based; conditions: dose <= 2.0 µM, time 6.0 day
BMDM [15] = assay: Inhibition of osteoclastogenesis in M-CSF/RANKL-induced osteoclast differentiation in C57BL/6J mouse BMDM cells assessed as reduction in NFATc1 level measured after 5 days by Western blot analysis; assay type: functional, cell-based; conditions: dose <= 2.0 µM, time 5.0 day
BMDM [16] = assay: Inhibition of osteoclastogenesis in M-CSF/RANKL-induced osteoclast differentiation in C57BL/6J mouse BMDM cells assessed as decrease in NFATc1 mRNA level at 1 uM measured for 5 days by qRT-PCR analysis; assay type: functional, cell-based; conditions: time 5.0 day
MC3T3-E1 [17] = assay: Effect on osteoblast mineralization in mouse MC3T3-E1 cells assessed as change in calcium nodules at 0.5 to 2 uM incubated for 7 days by ARS staining based analysis; assay type: functional, cell-based; conditions: dose 0.5-2 µM, time 7.0 day
Mus musculus [18] = assay: Anti-osteoporosis effect in OVX-induced osteoporosis C57BL/6 mouse model assessed as increase in Tb.Th value at 10 mg/kg, po administered every other day for 8 weeks by micro-CT analysis; assay type: functional, organism-based
BMDM [19] = assay: Inhibition of osteoclastogenesis in M-CSF/RANKL-induced osteoclast differentiation in C57BL/6J mouse BMDM cells assessed as reduction in JNK phosphorylation at 1 uM measured upto 60 mins by Western blot analysis; assay type: functional, cell-based
[20] = target: T1, Tumor necrosis factor ligand superfamily member 11 (Homo sapiens, UniProt O14788); assay: Binding affinity to CM5 sensor chip-immobilized RANKL (unknown origin) assessed as dissociation constant by SPR analysis
T1 sequence (O14788 whole entry): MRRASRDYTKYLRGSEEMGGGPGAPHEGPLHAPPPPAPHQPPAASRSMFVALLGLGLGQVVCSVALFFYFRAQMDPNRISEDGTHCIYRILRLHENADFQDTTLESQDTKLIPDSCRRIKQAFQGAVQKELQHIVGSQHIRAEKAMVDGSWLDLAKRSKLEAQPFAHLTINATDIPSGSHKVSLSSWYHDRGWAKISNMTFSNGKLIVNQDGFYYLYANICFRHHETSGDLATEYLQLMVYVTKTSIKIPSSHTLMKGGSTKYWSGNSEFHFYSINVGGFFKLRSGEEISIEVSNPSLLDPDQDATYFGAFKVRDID

[21] = target: T2, Tumor necrosis factor ligand superfamily member 11 (Homo sapiens) (UniProt O14788); assay: Binding affinity to RANKL (unknown origin) incubated for 15 mins by RED-NHS dye based MST assay
T2 sequence (whole entry): T1 sequence (O14788 whole entry)

BMDM [22] = assay: Inhibition of osteoclastogenesis in M-CSF/RANKL-induced osteoclast differentiation in C57BL/6J mouse BMDM cells assessed as reduction in cathepsin K mRNA level measured after 5 days by qRT-PCR analysis; assay type: functional, cell-based; conditions: dose <= 2.0 µM, time 5.0 day
MC3T3-E1 [23] = assay: Effect on osteoblast differentiation in mouse MC3T3-E1 cells assessed as change in BMP2 mRNA level at 0.5 to 2 uM incubated for 7 days by qRT-PCR analysis; assay type: functional, cell-based; conditions: dose 0.5-2 µM, time 7.0 day
[24] = Toxicity in OVX-induced osteoporosis C57BL/6 mouse model assessed as pathological change in liver at 10 mg/kg, po administered every other day for 8 weeks by H and E staining based analysis; assay type: organism-based; conditions: in vivo, 1344 h
[25] = target: T2, Tumor necrosis factor ligand superfamily member 11 (Homo sapiens); assay: Binding affinity to CM5 sensor chip-immobilized RANKL (unknown origin) by SPR analysis; conditions: dose 0.98-31.25 µM
BMDM [26] = assay: Inhibition of osteoclastogenesis in M-CSF/RANKL-induced osteoclast differentiation in C57BL/6J mouse BMDM cells at 1 uM measured for 1 to 3 days by TRAP staining based analysis; assay type: functional, cell-based; conditions: time 1-3 day
BMDM [27] = assay: Inhibition of osteoclastogenesis in M-CSF/RANKL-induced osteoclast differentiation in C57BL/6J mouse BMDM cells assessed as decrease in c-Fos level at 1 uM measured for 5 days by Western blot analysis; assay type: functional, cell-based; conditions: time 5.0 day
Mus musculus [28] = assay: Anti-osteoporosis effect in OVX-induced osteoporosis C57BL/6 mouse model assessed as decrease in Tb.Sp value at 10 mg/kg, po administered every other day for 8 weeks by micro-CT analysis; assay type: functional, organism-based
BMDM [29] = assay: Inhibition of osteoclastogenesis in M-CSF/RANKL-induced osteoclast differentiation in C57BL/6J mouse BMDM cells assessed as reduction in c-Fos mRNA level measured after 5 days by qRT-PCR analysis; assay type: functional, cell-based; conditions: dose <= 2.0 µM, time 5.0 day

Compound: O=C1C([Se]c2ccccc2)=C([Se]c2ccccc2)C(=O)N1Cc1ccccc1
- Activity [1]: Non-toxic
- Activity (MC3T3-E1 [2]): No effect
- Activity (MC3T3-E1 [3]): No effect
- Activity [4]: Non-toxic
- Activity (BMDM [5]): No effect
- Activity (Mus musculus [6]): Active; Displayed Similar Effect With That Exhibited By Alendronate
- inhibition (BMDM [7]): Active
- Activity [8]: Non-toxic
- inhibition (BMDM [9]): Dose-dependent-effect
- Activity [10]: Non-toxic
- Activity [11]: Non-toxic
- inhibition (BMDM [12]): Active
- inhibition (BMDM [13]): Dose-dependent-effect
- inhibition (BMDM [14]): Dose-dependent-effect
- inhibition (BMDM [15]): Dose-dependent-effect
- inhibition (BMDM [16]): Active
- Activity (MC3T3-E1 [17]): No effect
- Activity (Mus musculus [18]): Active; Displayed Similar Effect With That Exhibited By Alendronate
- inhibition (BMDM [19]): Active
- Kd [20]: 920 nM
- Activity [21]: 1.51 µM
- inhibition (BMDM [22]): Dose-dependent-effect
- Activity (MC3T3-E1 [23]): No effect
- Activity [24]: Non-toxic
- Activity [25]: Dose-dependent-effect
- inhibition (BMDM [26]): Active
- inhibition (BMDM [27]): Active
- Activity (Mus musculus [28]): Active; Displayed Similar Effect With That Exhibited By Alendronate
- inhibition (BMDM [29]): Dose-dependent-effect
